Source: patent publication US8865750B2, “Small molecule inhibitors of RGS proteins” (The Regents of The University of Michigan, priority 2011, dated 2014)
“Also recorded” adds a separate entry of the source. Like-named read-outs stand apart in the source and are kept apart here.

Legend:
Tail suspension test = format: in vivo, mice
From the text: This Example describes antidepressant activity of compounds of embodiments of the present invention. Antidepressant-like effects of CCG 203769: The tail suspension test in mice is a model of learned helplessness and is used as an assay for antidepressant medications. In this test antidepressant drugs (such as SSRIs) decrease the time the animals spend immobile by increasing escape-like behaviors.

RGS8 = RGS8 (Homo sapiens (Human), UniProt P57771); assay: FCPIA: Gαo binding to RGS8
From the text: (§1) FCPIA Dose Response and Reversibility Experiments:

RGS7 = RGS7 (Homo sapiens (Human), UniProt P49802); assay: FCPIA: Gαo binding to RGS7; settings: Table 7
Procedure: as §1
(§2) FCPIA was performed as previously described using chemically biotinylated RGS proteins and AlexaFluor-532 labeled Gα0. (Roman et al., J Biomol Screen, 2009; Blazer, L. L., et al., Mol Pharmacol).
(§3) RGS/Gα binding studies: The binding of biotinylated RGS proteins to fluorescently labeled Gαo was measured by Flow Cytometry Protein Interaction Assay (FCPIA) method previously described (Roman et al., (2009) J Biomol Screen.; Blazer et al., (2010) Curr Protoc Cytom Chapter 13, Unit 13 11 11-15; Roman et al., (2007) Mol Pharmacol 71, 169-175) as were the measures of compound reversibility.

Solubility experiments = format: physicochemical; settings: water; aqueous
Procedure: Compounds were diluted to 100 mM in DMSO and the further diluted to 500 μM in H2O, vortexed and centrifuged for 10 minutes at 13,000×g at ambient temperature.

RGS4 [1] = molecular target: T1, RGS4 (Homo sapiens (Human), UniProt P49798); assay: Carbachol Ca2+ mobilization, M3 HEK-293 cells with doxycycline-induced RGS4; format: cell-based
Procedure: Calcium Mobilization Experiments:
A stable cell line was developed based upon the HEK-293 Flp-In TREx cell line (Invitrogen, Carlsbad, Calif.) that stably express the muscarinic M3 receptor and have human RGS4 expression under doxycycline control. Cells were maintained in DMEM supplemented with 10% fetal bovine serum and Penicillin (100 units/ml)-Streptomycin (100 μg/ml) under 5% CO2 at 37° C. For experiments, cells were split into 96-well black, clear bottom, poly-D-lysine coated microtiter plates (Nunc, Cat. #152037) at a density of 20,000 cells/well in DMEM containing 10% fetal bovine serum and Penicillin (100 units/ml), Streptomycin (100 μg/ml). […] Compounds and/or carbachol were added to the wells and the fluorescence intensity was measured using a FlexStation (Molecular Devices, Sunnyvale, Calif.) plate reader. Data analysis was performed by calculating the area under the curve or maximal fluorescence intensity from a 120 second kinetic measurement.
Calcium signaling transients: A stable cell line was developed based upon the HEK-293 Flp-In TREx cell line (Invitrogen, Carlsbad, Calif.) that stably express the muscarinic M3 receptor and have human RGS4 expression under doxycycline control. […] Compounds and/or carbachol were added to the wells and the fluorescence intensity was measured using a FlexStation (Molecular Devices, Sunnyvale, Calif.) plate reader. […]
Target sequence in this assay (P49798 whole entry): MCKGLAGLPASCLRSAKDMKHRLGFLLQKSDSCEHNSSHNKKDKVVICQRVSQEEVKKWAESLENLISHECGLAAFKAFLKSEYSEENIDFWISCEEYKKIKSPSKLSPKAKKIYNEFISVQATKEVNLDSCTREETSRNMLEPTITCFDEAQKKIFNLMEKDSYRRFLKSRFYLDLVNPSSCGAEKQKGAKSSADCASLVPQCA

RGS4 [2] = molecular target: T1, RGS4; assay: Steady-state GAP assay (malachite green); format: biochemical
Procedure: Steady-state GAP Assay: Steady-state hydrolysis of unlabled GTP was measured using malachite green in a receptor-independent assay utilizing a mutant Gαi1 (R178M, A326S) (Zielinski et al., (2009) J Biomol Screen 14, 1195-1206). These mutations facilitate the release of GDP from the enzyme making the GTP hydrolysis step rate-limiting (Lielinski et al., supra). […] The reaction is allowed to proceed for 2 hours at room temperature and then quenched with an H2SO4/malachite green dye solution. Immediately after addition of malachite green, sodium citrate was added as a colorimetric stablizer. Released inorganic phosphate was measured as an increase in absorbance (Abs630) from the complex of phosphate with malachite green (Chang, et al., 2008). Background control samples lacking Gα or RGS were used to determine the rate of non-enzymatic GTP hydrolysis.
Target sequence in this assay (P49798 whole entry, species assumed): as the sequence (P49798 whole entry) above

RGS19 = RGS19 (Homo sapiens (Human), UniProt P49795); assay: FCPIA: Gαo binding to RGS19; settings: Table 7
Procedure: as §1, §2, §3

RGS4 [3] = molecular target: T1, RGS4; assay: Single turnover GTPase (GAP) assay, RGS4; format: biochemical
Procedure: Single Turnover GTPase Measurements:
Compounds were tested for the ability to inhibit the RGS4 and RGS8-stimulated increase in GTP hydrolysis by Gα0 as described previously (Roman, D. L., et al., Mol Pharmacol, 2007. 71(1): p. 169-75; Roof, R. A., et al., Chem Biol Drug Des, 2006. 67(4): p. 266-74).
Compounds were tested for the ability to inhibit the RGS4 and RGS8-stimulated increase in GTP hydrolysis by Gα0 as previously described (Roman, D. L., et al., Mol Pharmacol, 2007. 71(1): p. 169-75; Roof, R. A., et al., Chem Biol Drug Des, 2006. 67(4): p. 266-74).
Single-turnover GAP assay: Experiments were performed as previously described using purified his6-tagged Gαo (Blazer et al., Biochemistry 50, 3181-3192; Roof et al., (2008) Chem Biol Drug Des 72, 111-119).
Target sequence in this assay (P49798 52-205, species assumed): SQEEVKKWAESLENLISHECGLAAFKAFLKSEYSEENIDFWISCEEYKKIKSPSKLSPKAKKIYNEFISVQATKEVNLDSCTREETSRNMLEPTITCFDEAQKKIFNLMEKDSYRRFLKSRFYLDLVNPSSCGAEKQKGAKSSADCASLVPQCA

Sequence of RGS8 (P57771 other isoform, or with tags, fused parts or gaps): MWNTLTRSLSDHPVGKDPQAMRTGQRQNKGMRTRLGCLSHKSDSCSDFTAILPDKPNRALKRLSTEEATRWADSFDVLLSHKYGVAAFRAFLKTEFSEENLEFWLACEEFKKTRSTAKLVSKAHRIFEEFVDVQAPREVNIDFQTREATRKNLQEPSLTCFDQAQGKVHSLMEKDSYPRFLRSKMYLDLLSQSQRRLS
Sequence of RGS7 (P49802 whole entry, species assumed): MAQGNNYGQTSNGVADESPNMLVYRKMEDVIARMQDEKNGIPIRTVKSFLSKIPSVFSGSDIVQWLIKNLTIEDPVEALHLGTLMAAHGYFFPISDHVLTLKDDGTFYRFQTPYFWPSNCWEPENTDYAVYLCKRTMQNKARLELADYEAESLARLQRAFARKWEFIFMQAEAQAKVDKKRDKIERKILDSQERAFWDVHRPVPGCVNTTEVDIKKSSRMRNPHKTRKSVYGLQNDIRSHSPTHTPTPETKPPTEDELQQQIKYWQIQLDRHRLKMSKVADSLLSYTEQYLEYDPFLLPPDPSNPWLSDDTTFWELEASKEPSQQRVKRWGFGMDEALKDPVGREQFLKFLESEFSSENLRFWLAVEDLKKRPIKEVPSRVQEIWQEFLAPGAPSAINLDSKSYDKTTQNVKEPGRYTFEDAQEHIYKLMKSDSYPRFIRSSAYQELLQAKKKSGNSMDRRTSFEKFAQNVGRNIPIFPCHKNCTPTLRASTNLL
Sequence of RGS19 (P49795 whole entry, species assumed): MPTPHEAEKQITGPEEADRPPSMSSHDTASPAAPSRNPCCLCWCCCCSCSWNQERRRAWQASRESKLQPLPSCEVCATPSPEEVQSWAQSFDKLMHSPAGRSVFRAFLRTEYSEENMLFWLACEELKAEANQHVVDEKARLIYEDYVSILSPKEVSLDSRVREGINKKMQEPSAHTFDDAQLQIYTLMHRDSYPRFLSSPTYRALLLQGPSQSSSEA

Structure (SMILES): CCCCn1c(=O)sn(CC)c1=O [CCG-203769, 2-ethyl-4-butyl-1,2,4-thiadiazolidine-3,5-dione]
- effect on immobility in RGS4 knockout mice (Tail suspension test; 10 mg/kg): lost
- immobility time (Tail suspension test; IP, significant effect at 10 mg/kg): decreases their immobility time in a dose-dependent manner
- RGS8 Hill Slope (RGS8; Table 3): −0.56
- IC50 (RGS8; Table 6, FCPIA, read-out: RGS8 IC50): 83.5 µM
- IC50 (RGS8; Table 7, read-out: IC50 (μM), RGS8): 79 µM
- IC50 (RGS7): > 100 µM
- solubility (Solubility experiments): > 5 mM
- lowest concentration with enhanced Ca2+ signaling (RGS4 [1]): 1 µM
- reversal of RGS4-mediated suppression of carbachol Ca2+ response (RGS4 [1]; 15 min pretreatment, 1 and 3 μM): partially rescued; also recorded: partially reverse
- inhibition of RGS4 effect in steady-state GTPase assay (RGS4 [2]): potently inhibits the functional effect of RGS4
- IC50 (RGS19): 0.14 µM
- inhibition of GAP activity of RGS4 (RGS4 [3]): potently inhibits the functional effect of RGS4
